Reference: ChEMBL document CHEMBL4483862, “Open-source discovery of chemical leads for next-generation chemoprotective antimalarials” (2018)

Test system: Plasmodium berghei
Test: Luciferase/luciferin-expressing antifolate-resistant parasites were used to infect a culture of HepG2 cells that were pre-incubated with compounds. Infected hepatocytes emit light due to the luciferase reaction. Assay results are presented as the percent inhibition of light emission compared to control. […]
Assay type: functional
Details: sporozoite; for IC50: read-out: LUCIFERASE INFECTION ASSAY - IC50; for IC90: read-out: LUCIFERASE INFECTION ASSAY - IC90

SMILES	IC50	IC90
Cc1ccc(-c2csc(NC(=O)CSc3nc4ccccc4c(=O)n3CCCN(C)C)n2)cc1	> 10 µM	> 10 µM
COc1ccc(OCc2nnc(SCC(=O)NCC3CCCO3)n2N)cc1 (centres undefined)	> 10 µM	> 10 µM
NS(=O)(=O)c1ccc(CCNC(=O)c2ccc3nccnc3c2)cc1	> 10 µM	> 10 µM
Cc1cccc(C(=O)NCCC(=O)NCc2ccccc2F)c1	> 10 µM	> 10 µM
CCOc1ccc(NC(=O)c2ccc(NC(=O)CSc3nncs3)cc2)cc1	> 10 µM	> 10 µM
CCn1c(C)nc2cc(C(=O)NNS(=O)(=O)c3cccc(Cl)c3Cl)ccc21.O=S(=O)(O)c1cccc(Cl)c1Cl	> 10 µM	> 10 µM
COc1cc(OC)c(NC(=O)c2cc3ccccc3cc2OCC(=O)NC(C)c2ccccc2)cc1Cl (centres undefined)	> 10 µM	> 10 µM
Cc1ccc(-c2nc(SCc3nc(=O)c4ccc(C(=O)O)cc4[nH]3)[nH]c2-c2ccc(C)cc2)cc1	> 10 µM	> 10 µM
CC(Sc1nnc(-c2ccc(C(C)(C)C)cc2)n1Cc1ccco1)C(=O)Nc1ccc(Cl)cn1 (centres undefined)	> 10 µM	> 10 µM
Cc1noc(C)c1COc1ccccc1C(=O)N1CCN(S(=O)(=O)c2cccc(C(F)(F)F)c2)CC1	> 10 µM	> 10 µM
CC(C)(C)c1ccc(-c2nnc(SCC(=O)N(Cc3ccccc3)c3nc(-c4ccc(Cl)cc4)cs3)n2-c2ccc(Br)cc2)cc1	> 10 µM	> 10 µM
CC(=O)c1cc2c(cc1NC(=O)c1cccc(S(=O)(=O)N3c4ccccc4CC3C)c1)OCO2 (centres undefined)	> 10 µM	> 10 µM
Cc1nc(N2CCCCC2)sc1C(=O)c1ccc(SCc2cc(Cl)cc3c2OCOC3)c([N+](=O)[O-])c1	> 10 µM	> 10 µM
Cc1cc(SCC(=O)NNC(=O)c2ccc(NS(=O)(=O)c3cccs3)cc2)nc2ccccc12	> 10 µM	> 10 µM
CCC(NCC(O)COc1ccccc1C(C)C)C12CC3CC(CC(C3)C1)C2 (centres undefined)	> 10 µM	> 10 µM
Cc1cccc(C(=O)Nc2ccccc2C(=O)OCC(=O)c2c[nH]c3ccccc23)c1	> 10 µM	> 10 µM
CSc1ccc(/C=N/OCC(=O)NCCc2ccc(Cl)cc2Cl)cc1	> 10 µM	> 10 µM
CCOc1ccc(C(C)=O)cc1COC(=O)c1cc(-c2ccccc2)nc2c1c(C)nn2-c1ccccc1	> 10 µM	> 10 µM
CC1CCCC(C)N1CCC(=O)NNC(=O)c1cc(-c2ccc(Cl)cc2)nc2ccccc12 (centres undefined)	7.66 µM	> 10 µM
Cc1cccc2sc(N(Cc3ccccc3)C(=O)CSC(c3ccccc3)c3ccccc3)nc12	> 10 µM	> 10 µM
S=c1[nH]c2ccccc2n1C1CCCCC1	> 10 µM	> 10 µM
Cc1cc(=O)oc2cc(OCC(=O)OCC(=O)c3c(-c4ccccc4)[nH]c4ccccc34)ccc12	1.85 µM	7.83 µM
O=c1c2ccccc2nc(Sc2ccc([N+](=O)[O-])c(C(F)(F)F)c2)n1-c1ccc(OC(F)F)cc1	> 10 µM	> 10 µM
O=C(NCC12CC3CC(CC(C3)C1)C2)c1ccc2ccccc2c1	> 10 µM	> 10 µM
OC12CC3CC(C1)CC(c1cc(-c4ccccc4Cl)c4cc(Cl)ccc4n1)(C3)C2	> 10 µM	> 10 µM
Cc1ccc(-c2cc(C(=O)NNC(=O)CC34CC5CC(CC(C5)C3)C4)c3ccccc3n2)cc1	> 10 µM	> 10 µM

SMILES	IC50	IC90
CSc1nn(-c2ccc(C(=O)OCc3c(C)cc(C(C)(C)C)cc3C)cc2)c(=S)s1	> 10 µM	> 10 µM
c1ccc2c(CSCCC34CC5CC(CC(C5)C3)C4)cccc2c1	> 10 µM	> 10 µM
C=CCn1c(-c2c(C)oc3ccccc23)cs/c1=N\S(=O)(=O)c1cccs1	> 10 µM	> 10 µM
COC(=O)c1cc(Br)ccc1NC(=O)CCNC(=O)c1cccc(C)c1	> 10 µM	> 10 µM
CCOC(=O)CCCNC(=O)COC(=O)c1cc(-c2ccco2)nc2ccccc12	> 10 µM	> 10 µM
O=C(CCc1nc(=O)c2ccccc2[nH]1)OC(C(=O)c1c[nH]c2ccccc12)c1ccccc1 (centres undefined)	> 10 µM	> 10 µM
CCc1c(C)sc2nc(SCC3COc4ccccc4O3)n(-c3ccc(C)c(C)c3)c(=O)c12 (centres undefined)	> 10 µM	> 10 µM
Cc1ccc(C(C)(C)C)cc1S(=O)(=O)Nc1ccc(C(=O)OC(C)c2nc(=O)c3c(C)c(C)sc3[nH]2)cc1 (centres undefined)	> 10 µM	> 10 µM
Cc1ccc(Cn2nc(C)c(/C=N/NC(=O)c3ccccc3NS(=O)(=O)c3cccs3)c2C)cc1	> 10 µM	> 10 µM
FC(F)(F)c1cnc(Sc2nc(CN3CCOCC3)nc3scc(-c4ccccc4)c23)c(Cl)c1	> 10 µM	> 10 µM
Cc1ccccc1C(=O)N1CCC(C(=O)Oc2ccc(Cl)c3ccccc23)CC1	> 10 µM	> 10 µM
CCOC(=O)c1sc(N)c(C#N)c1COC(=O)C1CCN(S(=O)(=O)c2ccc(C)c(C)c2)CC1	> 10 µM	> 10 µM
CC(OC(=O)C1CCN(C(=O)c2ccc(Cl)cc2)CC1)C(=O)Nc1ccc([N+](=O)[O-])cc1C(F)(F)F (centres undefined)	> 10 µM	> 10 µM
COC(=O)c1ccc(-n2c(C)cc(C(=O)COC(=O)c3cc4c(=O)n5ccccc5nc4s3)c2C)cc1	9.43 µM	> 10 µM
COc1ccc(-n2c(C)cc(C(=O)CSc3nc4c(n3-c3ccccc3)CCCC4)c2C)cc1	> 10 µM	> 10 µM
O=C(Cc1csc(-c2ccccc2)n1)Nc1nc2c(s1)CCCC2	> 10 µM	> 10 µM
CCc1c(C)sc2nc(SCc3nc4ccccc4s3)n(-c3ccc(O)cc3C)c(=O)c12	> 10 µM	> 10 µM
CCn1c2ccccc2c2cc(NC(=O)C(C)OC(=O)c3ccc([N+](=O)[O-])o3)ccc21 (centres undefined)	> 10 µM	> 10 µM
Clc1nc2ccccc2cc1/C=N/Cc1ccc2c(c1)OCO2	> 10 µM	> 10 µM
CCOc1cc(N2CCOCC2)c(OCC)cc1NC(=O)c1n[nH]c(=O)c2ccccc12	> 10 µM	> 10 µM
O=C(CCC(=O)c1ccc2c(c1)OCCO2)OCn1nnc2ccccc2c1=O	> 10 µM	> 10 µM
O=C(NCC1COc2ccccc2O1)c1cccc(S(=O)(=O)N2CCC(Cc3ccccc3)CC2)c1 (centres undefined)	> 10 µM	> 10 µM
COc1ccc(N(CCC23CC4CC(CC(C4)C2)C3)S(=O)(=O)c2ccccc2)cc1	> 10 µM	> 10 µM
COc1ccc([N+](=O)[O-])cc1NC(=O)COC(=O)CSCc1c(C)noc1C	> 10 µM	> 10 µM
CC(C)c1ccc(N(C(=O)CC(c2ccccc2)c2ccccc2)c2nc3ccccc3s2)cc1	> 10 µM	> 10 µM
COc1ccc(OCCCC(=O)N(Cc2ccccc2)c2nc3c(C)cccc3s2)cc1	> 10 µM	> 10 µM

SMILES	IC50	IC90
CN(C)c1ccc(/C=C2\CCn3c2nc2scc(-c4ccccc4)c2c3=O)cc1[N+](=O)[O-]	> 10 µM	> 10 µM
O=C(NNC(=O)c1cc(F)c(F)c(F)c1F)c1ccc(COc2cccc3cccnc23)cc1	> 10 µM	> 10 µM
CC1CC(C)CN(C(=O)c2ccccc2C(=O)OCC(=O)NCc2cccs2)C1 (centres undefined)	> 10 µM	> 10 µM
CCOc1ccc(C(C)=O)cc1CSc1nnc(-c2ccc(F)cc2)c2ccccc12	> 10 µM	> 10 µM
CCOC(=O)c1c(-c2ccccc2)csc1NC(=O)C(C)OC(=O)c1ccccc1NS(=O)(=O)c1cccc(C(F)(F)F)c1 (centres undefined)	> 10 µM	> 10 µM
CC(OC(=O)c1ccc(=O)n(Cc2ccccc2)n1)C(=O)N1CCCc2ccccc21 (centres undefined)	> 10 µM	> 10 µM
CC(C)=CC(=O)Nc1scc(-c2ccccc2)c1C(=O)OCC(=O)N(CCC#N)c1cc(C)cc(C)c1	> 10 µM	> 10 µM
Cc1cc(C)cc(OCC(O)CNC(C)CCC(C)C)c1 (centres undefined)	> 10 µM	> 10 µM
CC(OC(=O)c1ccccc1NS(=O)(=O)c1ccc2c(c1)OCCO2)C(=O)Nc1ccc([N+](=O)[O-])cc1C(F)(F)F (centres undefined)	> 10 µM	> 10 µM
Cc1ccc(C(=O)NC(c2ccccc2)c2ccccc2)s1	> 10 µM	> 10 µM
O=c1c2ccccc2nc(SCc2coc(-c3cccs3)n2)n1-c1ccc(Cl)cc1	> 10 µM	> 10 µM
O=C(Nc1nc(-c2ccccn2)cs1)c1cc([N+](=O)[O-])ccc1N1CCC(Cc2ccccc2)CC1	> 10 µM	> 10 µM
Clc1nc2ccccc2cc1/C=N/C1CCCCC1	> 10 µM	> 10 µM
Cc1ccccc1-n1c(Sc2ncccc2[N+](=O)[O-])nc2ccccc2c1=O	> 10 µM	> 10 µM
COc1ccc(OCCCC(=O)N(c2nc3ccccc3s2)c2cc(C(F)(F)F)ccc2Cl)cc1	> 10 µM	> 10 µM
CC(C)(C)C(=O)/C=c1\s/c(=C\c2ccsc2)c(=O)n1CC(=O)N1CCc2ccccc21	> 10 µM	> 10 µM
CCCn1c(=O)c2ccccc2n2c(SCc3nc(=O)c4ccc(C(=O)O)cc4[nH]3)nnc12	> 10 µM	> 10 µM
CCOC(C(=O)Nc1ccccc1Cc1ccccc1)(c1ccccc1)c1ccccc1	> 10 µM	> 10 µM
COC(=O)c1c(NC(=O)CN(C)Cc2ccc(OC(F)F)c(OC)c2)sc(C)c1C	> 10 µM	> 10 µM
CCN(c1ccccc1)S(=O)(=O)c1ccc(Cl)c(NC(=O)C2(c3ccc(Cl)cc3)CCCC2)c1	> 10 µM	> 10 µM
c1ccc(-c2csc3nc(-c4cccnc4)nc(NCC45CC6CC(CC(C6)C4)C5)c23)cc1	> 10 µM	> 10 µM
COc1ccc2c(C)cc(SCc3nc(=O)c4c(-c5ccc(Cl)cc5)csc4[nH]3)nc2c1	> 10 µM	> 10 µM
CCOC(=O)c1c(-c2ccc(C)o2)csc1NC(=O)CN(C)CC(=O)Nc1ccc(Cl)c(C(F)(F)F)c1	> 10 µM	> 10 µM
CCc1cc2c(=O)n(NC(=S)Nc3ccc(OC)cc3)cnc2s1	> 10 µM	> 10 µM
CC(C)(C)c1ccc(/C=N/NC(=O)CNc2ccccc2F)cc1	> 10 µM	> 10 µM
